From PMC7396997, “Discovery of 4-Anilinoquinolinylchalcone Derivatives as Potential NRF2 Activators” (Molecules, 2020)
Where “and” joins values, the source holds several entries; their conditions need not be identical. Equal entries are not always repeated. Structures can show the parent of a compound that is named as a salt.

How the values were obtained:
NRF2 = assay: ARE-driven luciferase reporter assay (NRF2 activity) in HaCaT/ARE stable cells; type: cell-based, human; conditions: 10 μM, 24 h (b12; method b59 says 18 h), luciferase normalised to cell viability, DMSO control = 100%; for activity at 10 µM: Homo sapiens, HaCaT, read-out: % of Relative NRF2 Activity in HaCaT Cell
Source text: In this study, we used a stable ARE-driven reporter system to screen the potential NRF2 activators.

HaCaT/ARE cells = assay: Cell viability (resazurin) in the reporter screen; conditions: 10 μM; in % (unit assumed)
Description: Immortalized human keratinocytes HaCaT were cultured in the Dulbecco’s modified Eagle’s medium (DMEM; Gibco BRL, Grand Island, NY, USA) with 10% heat-inactivated fetal bovine serum (HyClone, Logan, UT, USA), penicillin (100 U/mL), and streptomycin (100 μg/mL) in a humidified incubator with 5% CO2. HaCaT/ARE stable cells were grown in DMEM supplemented with 100 μg/mL of hygromycin.
HaCaT/ARE stable cells were seeded (1 × 10^4 cells/well) in a 96 well plate, then were treated with indicated concentrations of compounds for 18 h. At the assay time point, resazurin (Cayman Chemical, Ann Arbor, MI, USA) was added to a final concentration of 0.1 mg/mL and further incubated for 4 h at 37 °C. Fluorescence of the reduced resazurin (ex/em: 530 nm/590 nm) was measured from the culture supernatant by using a Synergy HT Multi-Mode Reader (BioTek, Winooski, VT, USA) to determine cell viability. The cells were then harvested for luciferase activity measurements according to the manufacturer’s protocol (Promega Corporation, Madison, WI, USA). Relative luciferase activity was calculated by normalizing luciferase activity to cell viability, and DMSO solvent control was used as 100% activity.

Compound	% of Relative NRF2 Activity in HaCaT Cell (NRF2)	Cell Viability (HaCaT/ARE cells)	activity at 10 µM (NRF2)	melting point
CC(C)(C)c1cc(O)ccc1O [t-BHQ, tert-Butyl hydroquinone, reference compound]	1880% and 1880.4 ± 97.2%	97.7 ± 1.5		
CCN(CC)CCNC(=O)c1ccc(Nc2cc(/C=C/C(=O)c3ccccc3)nc3ccccc23)cc1 [12f]		78.8 ± 0.1	26%	
CCN(CC)CCOC(=O)c1ccc(Nc2cc(/C=C/C(=O)c3ccc(F)cc3)nc3ccccc23)cc1 (as salt: hydrochloride) [13h, 2-(Diethylamino)ethyl (E)-4-{{2-[3-(4-fluorophenyl)-3-oxoprop-1-en-1-yl]-quinolin-4-yl}amino}benzoate]				135.4 to 135.8 °C
(E)-1-(4-Methoxyphenyl)-3-[4-(phenylamino)quinolin-2-yl]prop-2-en-1-one [14a]	7% and 7.1 ± 1.3%			
(E)-4-{{2-[3-(4-Methoxyphenyl)-3-oxoprop-1-en-1-yl]quinolin-4-yl}-amino}benzoic acid [14c]	212% and 212.6 ± 93.6%	70.8 ± 1.9		
C/C(=N\OCCN)c1ccc(Nc2cc(/C=C/C(=O)c3ccccc3)nc3ccccc23)cc1 [12d]		68.4 ± 1.3	287%	
C/C(=N\OCCCN(C)C)c1ccc(Nc2cc(/C=C/C(=O)c3ccc(F)cc3)nc3ccccc23)cc1 [14e]		76.7 ± 0.2	193%	
CCN(CC)CCOC(=O)c1ccc(Nc2cc(/C=C/C(=O)c3ccc(OC)cc3)nc3ccccc23)cc1 [14h, 2-(Diethylamino)ethyl (E)-4-{{2-[3-(4-methoxyphenyl)-3-oxoprop-1-en-1-yl]-quinolin-4-yl}amino}benzoate]		76.8 ± 0.2	127%	
(E)-4-({2-[3-(4-Fluorophenyl)-3-oxoprop-1-en-1-yl]quinolin-4-yl}amino)-benzoic acid [13c]	147% and 147.3 ± 51.7%	74.5 ± 1.1		
CCN(CC)CCNC(=O)c1ccc(Nc2cc(/C=C/C(=O)c3ccc(OC)cc3)nc3ccccc23)cc1 [13f]		88.7 ± 1.9		
(E)-3-{4-{{4-{(E)-1-[(2-Aminoethoxy)imino]ethyl}phenyl}amino}quinolin-2-yl}-1-(4-fluorophenyl)prop-2-en-1-one [13d]	1697% and 1697.3 ± 39.8%			
CCN(CC)CCOC(=O)c1ccc(Nc2cc(/C=C/C(=O)c3ccccc3)nc3ccccc23)cc1 (as salt: hydrochloride) [12h, 2-(Diethylamino)ethyl (E)-4-{[2-(3-oxo-3-phenylprop-1-en-1-yl)quinolin-4-yl]amino}benzoate]				158.7 to 159.3 °C
CCN(CC)CCOC(=O)c1ccc(Nc2cc(/C=C/C(=O)c3ccc(OC)cc3)nc3ccccc23)cc1 (as salt: hydrochloride) [14h, 2-(Diethylamino)ethyl (E)-4-{{2-[3-(4-methoxyphenyl)-3-oxoprop-1-en-1-yl]-quinolin-4-yl}amino}benzoate]				158.7 to 159.3 °C
(E)-3-{4-{{4-{(E)-1-[(2-Aminoethoxy)imino]ethyl}phenyl}amino}quinolin-2-yl}-1-(4-methoxyphenyl)prop-2-en-1-one [14d]	229% and 229.4 ± 68.4%			
CCN(CC)CCNC(=O)c1ccc(Nc2cc(/C=C/C(=O)c3ccc(F)cc3)nc3ccccc23)cc1 [14f]	6.0 ± 0.3%	66.3 ± 2.6	6%	
CCN(CC)CCOC(=O)c1ccc(Nc2cc(/C=C/C(=O)c3ccc(F)cc3)nc3ccccc23)cc1 [13h, 2-(Diethylamino)ethyl (E)-4-{{2-[3-(4-fluorophenyl)-3-oxoprop-1-en-1-yl]-quinolin-4-yl}amino}benzoate]		82.7 ± 1.7		
C/C(=N\OCCCN(C)C)c1ccc(Nc2cc(/C=C/C(=O)c3ccccc3)nc3ccccc23)cc1 [12e, (E)-3-{4-{{4-{(E)-1-{[3-(dimethylamino)propoxy]imino}ethyl}phenyl}-amino}quinolin-2-yl}-1-phenylprop-2-en-1-one]		69.5 ± 0.9	95%	
CCN(CC)CCOC(=O)c1ccc(Nc2cc(/C=C/C(=O)c3ccccc3)nc3ccccc23)cc1 [12h, 2-(Diethylamino)ethyl (E)-4-{[2-(3-oxo-3-phenylprop-1-en-1-yl)quinolin-4-yl]amino}benzoate]		71.1 ± 1.2		
COc1ccc(/C=C/C(=O)c2c(O)cc(OC)cc2OC)cc1 [Flavokawain A, reference compound]		95.9 ± 1.6		
(E)-N-[2-(Diethylamino)ethyl]-4-{{2-[3-(4-fluorophenyl)-3-oxoprop-1-en-1-yl]quinolin-4-yl}amino}benzamide [13g]	5% and 5.1 ± 0.42%	78.7 ± 0.5		
CC(=O)c1ccc(Nc2cc(/C=C/C(=O)c3ccccc3)nc3ccccc23)cc1 (as salt: hydrochloride) [12b, (E)-3-{4-[(4-acetylphenyl)amino]quinolin-2-yl}-1-phenylprop-2-en-1-one]				248.7 to 249.2 °C
O=C(O)c1ccc(Nc2cc(/C=C/C(=O)c3ccccc3)nc3ccccc23)cc1 (as salt: hydrochloride) [12c, (E)-4-{[2-(3-oxo-3-phenylprop-1-en-1-yl)quinolin-4-yl]amino}benzoic acid]				298.3 to 298.9 °C
(E)-3-{4-{{4-{(E)-1-{[2-(Dimethylamino)ethoxy]imino}ethyl}phenyl}-amino}quinolin-2-yl}-1-(4-fluorophenyl)prop-2-en-1-one [13e]	2145% and 2144.7 ± 168.6%			
C/C(=N\OCCN)c1ccc(Nc2cc(/C=C/C(=O)c3ccccc3)nc3ccccc23)cc1 (as salt: hydrochloride) [12d]				200.2 to 201.5 °C
O=C(O)c1ccc(Nc2cc(/C=C/C(=O)c3ccccc3)nc3ccccc23)cc1 [12c, (E)-4-{[2-(3-oxo-3-phenylprop-1-en-1-yl)quinolin-4-yl]amino}benzoic acid]		81.4 ± 0.8	75%	
(E)-N-[2-(Diethylamino)ethyl]-4-{{2-[3-(4-methoxyphenyl)-3-oxoprop-1-en-1-yl]quinolin-4-yl}amino}benzamide [14g]	5% and 5.1 ± 0.18%	77.6 ± 1.5		
(E)-1-(4-Fluorophenyl)-3-[4-(phenylamino)quinolin-2-yl]prop-2-en-1-one [13a]	6% and 5.5 ± 0.17%			
O=C(/C=C/c1cc(Nc2ccccc2)c2ccccc2n1)c1ccccc1 [12a, (E)-1-phenyl-3-[4-(phenylamino)quinolin-2-yl]prop-2-en-1-one]		67.65 ± 0.6	7%	
O=C(/C=C/c1cc(Nc2ccccc2)c2ccccc2n1)c1ccccc1 (as salt: hydrochloride) [12a, (E)-1-phenyl-3-[4-(phenylamino)quinolin-2-yl]prop-2-en-1-one]				238.5 to 239.2 °C
C/C(=N\OCCCN(C)C)c1ccc(Nc2cc(/C=C/C(=O)c3ccccc3)nc3ccccc23)cc1 (as salt: hydrochloride) [12e, (E)-3-{4-{{4-{(E)-1-{[3-(dimethylamino)propoxy]imino}ethyl}phenyl}-amino}quinolin-2-yl}-1-phenylprop-2-en-1-one]				155.6 to 156.6 °C
